# Source: patent US20040121947A1, “Compounds which inhibit beta-secretase activity and methods of use thereof” (Oklahoma Medical Research Foundation, priority 2000, published 2004)
# Like-named read-outs stand apart in the source and are kept apart here. *1 amine or outer side, *2 acyl side, *3 side chain or, on linkers, in order; H or OH if unused. Where a SMILES comes first, the peptide text is derived from it. [ ]: non-standard residue; d: D form. LeuΨ(S-CHOHCH2)Ala = CC(C)C[C@H](N[*:1])[C@@H](O)C[C@@H](C)C(=O)[*:2]
# Molecular target: T1, memapsin 2 (Homo sapiens, UniProt P56817)
# T1 construct: pET-11 vector-derived residues 1-15 of promemapsin 2-T1 (N, cleaved yes); made in house; host or cells: E. coli
# T1 sequence (P56817 41-454 limits assumed): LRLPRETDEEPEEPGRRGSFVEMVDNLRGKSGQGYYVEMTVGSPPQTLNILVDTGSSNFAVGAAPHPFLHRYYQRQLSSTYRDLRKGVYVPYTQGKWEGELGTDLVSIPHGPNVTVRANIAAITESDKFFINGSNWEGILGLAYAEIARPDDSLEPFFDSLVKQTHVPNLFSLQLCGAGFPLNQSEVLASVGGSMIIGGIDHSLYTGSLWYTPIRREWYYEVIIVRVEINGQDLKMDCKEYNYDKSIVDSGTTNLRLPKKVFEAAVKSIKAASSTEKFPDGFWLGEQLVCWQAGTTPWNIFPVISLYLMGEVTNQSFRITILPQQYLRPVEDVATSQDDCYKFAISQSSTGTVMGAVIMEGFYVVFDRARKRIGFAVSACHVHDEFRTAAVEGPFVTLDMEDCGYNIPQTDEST
# Test: Inhibition of memapsin 2 proteolytic activity, fluorogenic substrate FS-2
# Format: biochemical
# Conditions: for Vi/Vo: ratio of initial cleavage velocities of FS-2 with/without compound, enzyme and inhibitor concentrations equal (e.g., about 80 nM, 100 nM)
# Procedure: Ki is the inhibition equilibrium constant which indicates the ability of compounds to inhibit the β-secretase activity of memapsin 2 and memapsin 1. […] The K1 value is independent of the substrate, and converted from Ki apparent.
# The Vi/Vo values depicted in Table 1 were determined at conditions under which the enzyme and inhibitor concentrations were equal (e.g., about 80 nM, 100 nM).
# The relationship of Ki (independent of substrate concentration) to Kiapp is a function of substrate concentration in the assay and the Km for cleavage of the substrate by either memapsin 1 or memapsin 2 by the relationship:
# The spontaneously activated memapsin 2 was employed in assays to assess the inhibition of memapsin 2 relative to memapsin 1 by compounds of the invention and in some crystallization studies.
# An aliquot of the inhibitor of known concentration in DMSO was diluted into 1.8 ml 0.1 M NaOAc, pH 4.0. DMSO and added to a final concentration of 10% (v/v), and memapsin 2 (final concentration of 80 nM), followed by a 20 minute equilibration at 37° C. Compounds were evaluated for the ability to inhibit memapsin 1 and memapsin 2 at concentrations between about 10 nM and about 10 μm of inhibitor.
# [1] = memapsin 2, apparent Ki in presence of substrate FS-2, read-out: Ki app
# [2] = memapsin 2, independent of substrate, converted from Ki apparent, read-out: Ki
SMILES,Ki [1] [nM],Ki [2] [nM],"Ki (Ki, [I] < 100, memapsin 2, [I] < 100 (nM)) [nM]",Vi/Vo,"Ki (memapsin 2, read-out: Ki) [nM]"
CC(C)C[C@H](NC(=O)[C@H](CCS(C)(=O)=O)NC(=O)OC(C)(C)C)[C@@H](O)C[C@@H](C)C(=O)N[C@@H](C)C(=O)NCc1ccccc1 [MMI-007],49900,31700,–,–,–
CC(C)C[C@H](NC(=O)[C@H](CS(C)(=O)=O)NC(=O)OC(C)(C)C)[C@@H](O)C[C@@H](C)C(=O)N[C@H](C(=O)NCc1ccccc1)C(C)C [MMI-024],1440,902,–,–,–
CCCCNC(=O)[C@@H](NC(=O)C(C)(C)C[C@H](O)[C@H](CC(C)C)NC(=O)[C@H](CCSC)NC(=O)OCn1nc(C)cc1C)C(C)C [MMI-218],1800,1120,226,–,–
CSCC[C@H](NC(=O)OC(C)(C)Cn1nc(C)cc1C)C(=O)N[C@@H](CC(C)C)[C@@H](O)C[C@@H](C)C(=O)N[C@@H](CC(C)C)C(=O)NC(C)C [MMI-219],1420,889,–,–,–
CC(C)C[C@H](NC(=O)[C@H](CC(N)=O)NC(=O)[C@@H](N)C(C)C)[C@@H](O)C[C@@H](C)C(=O)N[C@@H](C)C(=O)N[C@@H](CCC(=O)O)C(=O)O [OM01-1] (H-VN[LeuΨ(S-CHOHCH2)Ala]AE-OH),–,–,–,–,126
CSCC[C@H](NC(=O)[C@@H](NC(=O)OC(C)(C)C)C(C)C)C(=O)N[C@@H](CC(C)C)[C@@H](O)C[C@@H](C)C(=O)N[C@H](C(=O)NCc1cccnc1)C(C)C [MMI-087],905,565,–,–,–
CSCC[C@H](NC(=O)OCCn1nc(C)c2c1CSC2)C(=O)N[C@@H](CC(C)C)[C@@H](O)C[C@@H](C)C(=O)N[C@@H](CC(C)C)C(=O)NC(C)C [MMI-221],1910,1190,–,–,–
CSCC[C@H](NC(=O)OCc1ncc(C)n1C)C(=O)N[C@@H](CC(C)C)[C@@H](O)C[C@@H](C)C(=O)N[C@H](C(=O)NCC(C)C)C(C)C [MMI-188],230,144,–,–,–
CSCC[C@H](NC(=O)OCc1ccc(CN(C)C)o1)C(=O)N[C@@H](CC(C)C)[C@@H](O)C[C@@H](C)C(=O)N[C@H](C(=O)NCc1ccccc1)C(C)C [MMI-127],6840,4280,–,–,–
CC(C)C[C@H](NC(=O)[C@H](CCS(C)(=O)=O)NC(=O)OCc1ccco1)[C@@H](O)C[C@@H](C)C(=O)N[C@H](C(=O)NCc1ccccc1)C(C)C [MMI-136],–,–,–,0.87,–
CSCC[C@H](NC(=O)OCCn1nc(C)c2c1CS(=O)(=O)C2)C(=O)N[C@@H](CC(C)C)[C@@H](O)C[C@@H](C)C(=O)N[C@@H](CC(C)C)C(=O)NC(C)C [MMI-222],2450,1530,–,–,–
CSCC[C@H](NC(=O)c1cccc(O)c1O)C(=O)N[C@@H](CC(C)C)[C@@H](O)C[C@@H](C)C(=O)N[C@@H](CC(C)C)C(=O)NC(C)C [MMI-200],1530,956,–,–,–
C=CCCOC(=O)N[C@H](C(=O)N[C@@H](CC(=O)NCC=C)C(=O)N[C@@H](CC(C)C)[C@@H](O)C[C@@H](C)C(=O)N[C@H](C(=O)NCc1ccccc1)C(C)C)C(C)C [MMI-151],–,–,–,0.56,–
COc1cccc(C(=O)N[C@@H](CCSC)C(=O)N[C@@H](CC(C)C)[C@@H](O)C[C@@H](C)C(=O)N[C@@H](CC(C)C)C(=O)NC(C)C)c1 [MMI-209],1300,812,–,–,–
Cc1c(O)cccc1C(=O)N[C@H](C(=O)N[C@@H](CCS(C)(=O)=O)C(=O)N[C@@H](CC(C)C)[C@@H](O)C[C@@H](C)C(=O)N[C@@H](CC(C)C)C(=O)NCc1ccccc1)C(C)C [MMI-122],–,–,–,1.17,–
CSCC[C@H](NC(=O)[C@@H](NC(=O)OC(C)(C)C)C(C)C)C(=O)N[C@@H](CC(C)C)[C@@H](O)C[C@@H](C)C(=O)N[C@@H](C(=O)NCc1ccccc1)[C@@H](C)O [MMI-072],–,–,–,0.9,–
CSCC[C@H](NC(=O)OCc1ccoc1)C(=O)N[C@@H](CC(C)C)[C@@H](O)C[C@@H](C)C(=O)N[C@H](C(=O)NCc1ccccc1)C(C)C [MMI-118],311,194,–,0.48,–
CSCC[C@H](NC(=O)O[C@H]1CCOC1)C(=O)N[C@@H](CC(C)C)[C@@H](O)C[C@@H](C)C(=O)N[C@@H](CC(C)C)C(=O)NC(C)C [MMI-227],721,452,–,–,–
CSCC[C@H](NC(=O)[C@H](C(C)C)N1CCCNC1=O)C(=O)N[C@@H](CC(C)C)[C@@H](O)C[C@@H](C)C(=O)N[C@@H](CC(C)C)C(=O)NCC(C)C [MMI-198],756,473,–,–,–
CSCC[C@H](NC(=O)[C@H](C)NC(=O)[C@H](C)C[C@H](O)[C@H](CC(C)C)NC(=O)OC(C)(C)C)C(=O)NCc1ccccc1 [MMI-002],–,274000,–,–,–
CSCC[C@H](NC(=O)[C@@H](NC(=O)OC(C)(C)C)C(C)C)C(=O)N[C@@H](CC(C)C)[C@@H](O)C[C@@H](C)C(=O)N[C@@H](C(C)C)C1CC(Cc2ccccc2)CCO1 (stereo partly shown) [MMI-146-A],–,–,–,1.07,–
CSCC[C@H](NC(=O)OCc1c(C)ncn1C)C(=O)N[C@@H](CC(C)C)[C@@H](O)C[C@@H](C)C(=O)N[C@H](C(=O)NCC(C)C)C(C)C [MMI-189],358,224,–,–,–
C=C(C[C@H](O)[C@H](CC(C)C)NC(=O)[C@H](CCSC)NC(=O)[C@@H](NC(=O)OC(C)(C)C)C(C)C)C(=O)N[C@H](C(=O)NCc1ccccc1)C(C)C [MMI-145],–,–,–,0.84,–

# Continued, in another order:
Ki [1] [nM],Ki [2] [nM],"Ki (Ki, [I] < 100, memapsin 2, [I] < 100 (nM)) [nM]",Vi/Vo,SMILES,"Ki (memapsin 2, read-out: Ki) [nM]"
4.9,3.06,–,–,CSCC[C@H](NC(=O)[C@H](CC(C)C)NC(=O)OC(C)(C)C)C(=O)N[C@@H](CC(C)C)[C@@H](O)C[C@@H](C)C(=O)N[C@H](C(=O)NCc1ccccc1)C(C)C [MMI-070],–
62.3,38.9,–,–,CSCC[C@H](NC(=O)CCn1nc(C)cc1C)C(=O)N[C@@H](CC(C)C)[C@@H](O)C[C@@H](C)C(=O)N[C@H](C(=O)NCC(C)C)C(C)C [MMI-194],–
68.7,42.9,–,–,CSCC[C@H](NC(=O)[C@@H](NC(=O)OC(C)(C)C)C(C)C)C(=O)N[C@@H](CC(C)C)[C@@H](O)C[C@@H](C)C(=O)N[C@@H](CC(C)C)C(=O)NCCc1c[nH]c2ccccc12 [MMI-065],–
84.6,52.9,–,–,CSCC[C@H](NC(=O)CCn1nc(C)cc1C)C(=O)N[C@@H](CC(C)C)[C@@H](O)C[C@@H](C)C(=O)N[C@H](C(=O)NCc1ccco1)C(C)C [MMI-213],–
73.6,46,–,–,CSCC[C@H](NC(=O)[C@@H](NC(=O)OC(C)(C)C)C(C)C)C(=O)N[C@@H](CC(C)C)[C@@H](O)C[C@@H](C)C(=O)N[C@@H](C)C(=O)NCc1ccccc1 [MMI-008],–
0.524,0.33,–,0.08,CSCC[C@H](NC(=O)[C@H](CC(C)C)NC(=O)OC(C)(C)C)C(=O)N[C@@H](CC(C)C)[C@@H](O)C[C@@H](C)C(=O)N[C@@H](CC(C)C)C(=O)NC(C)C [MMI-158],–
0.8,0.5,–,0.07,CCCCNC(=O)[C@@H](NC(=O)[C@H](C)C[C@H](O)[C@H](CC(C)C)NC(=O)[C@H](CCSC)NC(=O)[C@H](CC(C)C)NC(=O)OC(C)(C)C)C(C)C [MMI-159],–
201,125,–,–,CC(C)C[C@H](NC(=O)OC(C)(C)C)C(=O)N[C@H](CCS(C)(=O)=O)C(=O)N[C@@H](CC(C)C)[C@@H](O)C[C@@H](C)C(=O)N[C@H](C(=O)NCc1ccccc1)C(C)C [MMI-105],–
20.6,12.8,–,0.47,CC(C)C[C@H](NC(=O)[C@@H]1CC(=O)NC/C=C\CCOC(=O)N[C@@H](C(C)C)C(=O)N1)[C@@H](O)C[C@@H](C)C(=O)N[C@H](C(=O)NCc1ccccc1)C(C)C [MMI-152],–
65.5,40.9,–,–,CSC[C@H](NC(=O)[C@@H](NC(=O)OC(C)(C)C)C(C)C)C(=O)N[C@@H](CC(C)C)[C@@H](O)C[C@@H](C)C(=O)N[C@H](C(=O)NCc1ccccc1)C(C)C [MMI-025],–
48.8,30.5,–,–,CC(C)C[C@H](NC(=O)OC(C)(C)C)C(=O)N[C@@H](CC1CCCO1)C(=O)N[C@@H](CC(C)C)[C@@H](O)C[C@@H](C)C(=O)N[C@@H](CC(C)C)C(=O)NC(C)C (stereo partly shown) [MMI-205],–
25.9,16.2,–,0.46,C=CCNC(=O)C[C@H](NC(=O)[C@@H](NC(=O)OCC=C)C(C)C)C(=O)N[C@@H](CC(C)C)[C@@H](O)C[C@@H](C)C(=O)N[C@H](C(=O)NCc1ccccc1)C(C)C [MMI-148],–
94.5,59.1,–,–,CSCC[C@H](NC(=O)[C@@H](NC(=O)OC(C)(C)C)[C@H](C)O)C(=O)N[C@@H](CC(C)C)[C@@H](O)C[C@@H](C)C(=O)N[C@@H](CC(C)C)C(=O)NC(C)C [MMI-197],–
99.9,62.1,–,–,CSCC[C@H](NC(=O)[C@H](CC(C)C)NC(=O)OC(C)(C)C)C(=O)N[C@@H](CC(C)C)[C@H](O)C[C@@H](C)C(=O)N[C@H](C(=O)NCc1ccccc1)C(C)C [MMI-113],–
1.9,1.18,–,–,CC(C)C[C@H](NC(=O)OC(C)(C)C)C(=O)N[C@@H](CCS(C)(=O)=O)C(=O)N[C@@H](CC(C)C)[C@@H](O)C[C@@H](C)C(=O)N[C@H](C(=O)NCc1ccccc1)C(C)C [MMI-071],–
176,110,–,–,COCC[C@H](NC(=O)C(Cn1nc(C)cc1C)C(C)C)C(=O)N[C@@H](CC(C)C)[C@@H](O)C[C@@H](C)C(=O)N[C@H](C(=O)NCC(C)C)C(C)C (stereo partly shown) [MMI-228],–
